Reference: US11365187B2, “Pesticidally active pyrazole derivatives” (SYNGENTA PARTICIPATIONS AG, priority 2017, dated 2022)
Where two headings read alike, the source gives them in different places.

How the values were obtained:
Assay type in all cases: in vivo
[1] = system: Euschistus heros (Neotropical Brown Stink Bug); test: Euschistus heros feeding/contact activity on soybean leaves; settings: 120 h
Procedure: Euschistus heros (Neotropical Brown Stink Bug): Feeding/contact activity
Soybean leaves on agar in 24-well microtiter plates were sprayed with aqueous test solutions prepared from 10′000 ppm DMSO stock solutions. After drying the leaves were infested with N2 nymphs. The samples were assessed for mortality 5 days after infestation.

[2] = system: Spodoptera littoralis (Egyptian cotton leaf worm); test: Spodoptera littoralis feeding/contact activity on cotton leaf discs; settings: foliar, 72 h
Procedure: Spodoptera littoralis (Egyptian cotton leaf worm): Feeding/contact activity
Cotton leaf discs were placed onto agar in 24-well microtiter plates and sprayed with aqueous test solutions prepared from 10′000 ppm DMSO stock solutions. After drying the leaf discs were infested with five L1 larvae. The samples were assessed for mortality 3 days after infestation. […] 2, 3, 4, 5, 6, 7, 8, 9, 10, 11, 12, 13, 14, 15, 16, 17, 18, 19, 20, 21, 22, 23, 24, 25, 26, 27, 28 and 29.

[3] = system: Myzus persicae (Green peach aphid); test: Myzus persicae feeding/contact activity on sunflower leaf discs; settings: foliar, 144 h
Procedure: Myzus persicae (Green peach aphid): Feeding/Contact activity
Sunflower leaf discs were placed onto agar in a 24-well microtiter plate and sprayed with aqueous test solutions prepared from 10′000 ppm DMSO stock solutions. After drying, the leaf discs were infested with an aphid population of mixed ages. The samples were assessed for mortality 6 days after infestation.

[4] = system: Plutella xylostella (Diamond back moth); test: Plutella xylostella feeding/contact activity on artificial diet; settings: 120 h
Procedure: Plutella xylostella (Diamond back moth): Feeding/contact activity
24-well microtiter plates with artificial diet were treated with aqueous test solutions prepared from 10′000 ppm DMSO stock solutions by pipetting. After drying, the plates were infested with L2 larvae (10 to 15 per well). The samples were assessed for mortality 5 days after infestation.

[5] = system: Tetranychus urticae (Two-spotted spider mite); test: Tetranychus urticae feeding/contact activity on bean leaf discs; settings: foliar, 192 h, read-out: mortality on mixed population (mobile stages)
Procedure: Tetranychus urticae (Two-spotted spider mite): Feeding/contact activity
Bean leaf discs on agar in 24-well microtiter plates were sprayed with aqueous test solutions prepared from 10′000 ppm DMSO stock solutions. After drying the leaf discs were infested with a mite population of mixed ages. The samples were assessed for mortality on mixed population (mobile stages) 8 days after infestation.

[6] = application rate 200 ppm, N2 nymphs, assessed 5 days after infestation, read-out: mortality
[7] = application rate 200 ppm, L1 larvae, assessed 3 days after infestation, read-out: mortality
[8] = application rate 200 ppm, aphid population of mixed ages, assessed 6 days after infestation, read-out: mortality
[9] = application rate 200 ppm, L2 larvae, assessed 5 days after infestation, read-out: mortality
[10] = application rate 200 ppm, mite population of mixed ages, assessed 8 days after infestation

Measured: mortality at 200 ppm

Cn1nc(C(F)(C(F)(F)F)C(F)(F)F)c(OC(F)F)c1-n1cc(-c2ccc(Cl)c(C(=O)N(CC#N)C3CC3)c2)cn1 [Example 16, 2-chloro-N-(cyanomethyl)-N-cyclopropyl-5-[1-[4-(difluoromethoxy)-2-methyl-5-[1,2,2,2-tetrafluoro-1-(trifluoromethyl)ethyl]pyrazol-3-yl]pyrazol-4-yl]benzamide]
≥ 80%: [1]; [6] | [2]; [7] | [3]; [8] | [4]; [9] | [5]; [10]

CCCN(C(=O)c1cc(-c2cnn(-c3c(OC(F)F)c(C(F)(C(F)(F)F)C(F)(F)F)nn3C)c2)ccc1Cl)C1(C#N)CC1 [Example 14, 2-chloro-N-(1-cyanocyclopropyl)-5-[1 - [4-(difluoromethoxy)-2-methyl-5-[1,2,2,2-tetrafluoro-1-(trifluoromethyl)ethyl]pyrazol-3-yl]pyrazol-4-yl]-N-propyl-benzamide]
≥ 80%: [1]; [6] | [2]; [7]

CC(C)N(C(=O)c1cc(-c2cnn(-c3c(OC(F)F)c(C(F)(C(F)(F)F)C(F)(F)F)nn3C)c2)ccc1Cl)C1(C#N)CC1 [Example 5, 2-chloro-N-(1-cyanocyclopropyl)-5-[1-[4-(difluoromethoxy)-2-methyl-5-[1,2,2,2-tetrafluoro-1-(trifluoromethyl)ethyl]pyrazol-3-yl]pyrazol-4-yl]-N-isopropyl-benzamide]
≥ 80%: [1]; [6] | [2]; [7]

CC(C)OC(=O)N(C(=O)c1cc(-c2cnn(-c3c(OC(F)F)c(C(F)(C(F)(F)F)C(F)(F)F)nn3C)c2)ccc1Cl)C1(C#N)CC1 [Example 20, isopropyl N-[2-chloro-5-[1-[4-(difluoromethoxy)-2-methyl-5-[1,2,2,2-tetrafluoro-1-(trifluoromethyl)ethyl]pyrazol-3-yl]pyrazol-4-yl]benzoyl]-N-(1-cyanocyclopropyl)carbamate]
≥ 80%: [1] | [2] | [3] | [4]

CCOC(=O)N(C(=O)c1cc(-c2cnn(-c3c(OC(F)F)c(C(F)(C(F)(F)F)C(F)(F)F)nn3C)c2)ccc1Cl)C1CC1 [Example 15, ethyl N-[2-chloro-5-[1-[4-(difluoromethoxy)-2-methyl-5-[1,2,2,2-tetrafluoro-1-(trifluoromethyl)ethyl]pyrazol-3-yl]pyrazol-4-yl]benzoyl]-N-cyclopropyl-carbamate]
≥ 80%: [1] | [2] | [3] | [4] | [5]

Cn1nc(C(F)(C(F)(F)F)C(F)(F)F)c(OC(F)F)c1-n1cc(-c2ccc(Cl)c(C(=O)N(C(=O)OCCl)C3(C#N)CC3)c2)cn1 [Example 29, chloromethyl N-[2-chloro-5-[1-[4-(difluoromethoxy)-2-methyl-5-[1,2,2,2-tetrafluoro-1-(trifluoromethyl)ethyl]pyrazol-3-yl]pyrazol-4-yl]benzoyl]-N-(1-cyanocyclopropyl)carbamate]
≥ 80%: [1] | [2] | [3] | [4] | [5]

CCOCN(C(=O)c1cc(-c2cnn(-c3c(OC(F)F)c(C(F)(C(F)(F)F)C(F)(F)F)nn3C)c2)ccc1Cl)C1(C#N)CC1 [Example 10, 2-chloro-N-(1-cyanocyclopropyl)-5-[1-[4-(difluoromethoxy)-2-methyl-5-[1,2,2,2-tetrafluoro-1-(trifluoromethyl)ethyl]pyrazol-3-yl]pyrazol-4-yl]-N-(ethoxymethyl)benzamide]
≥ 80%: [1]; [6] | [2]; [7] | [3]; [8] | [4]; [9] | [5]; [10]

Cn1nc(C(F)(C(F)(F)F)C(F)(F)F)c(OC(F)F)c1-n1cc(-c2ccc(Cl)c(C(=O)NC3CC3)c2)cn1 [Example 17, 2-chloro-N-cyclopropyl-5-[1-[4-(difluoromethoxy)-2-methyl-5-[1,2,2,2-tetrafluoro-1-(trifluoromethyl)ethyl]pyrazol-3-yl]pyrazol-4-yl]benzamide]
≥ 80%: [1]; [6] | [2]; [7] | [3]; [8] | [4]; [9] | [5]; [10]

CC(C)CN(C(=O)c1cc(-c2cnn(-c3c(OC(F)F)c(C(F)(C(F)(F)F)C(F)(F)F)nn3C)c2)ccc1Cl)C1(C#N)CC1 [Example 21, 2-chloro-N-(1-cyanocyclopropyl)-5-[1-[4-(difluoromethoxy)-2-methyl-5-[1,2,2,2-tetrafluoro-1-(trifluoromethyl)ethyl]pyrazol-3-yl]pyrazol-4-yl]-N-isobutyl-benzamide]
≥ 80%: [1]; [6] | [2]; [7]

CC(C)OCN(C(=O)c1cc(-c2cnn(-c3c(OC(F)F)c(C(F)(C(F)(F)F)C(F)(F)F)nn3C)c2)ccc1Cl)C1(C#N)CC1 [Example 2, 2-chloro-N-(1-cyanocyclopropyl)-5-[1-[4-(difluoromethoxy)-2-methyl-5-[1,2,2,2-tetrafluoro-1-(trifluoromethyl)ethyl]pyrazol-3-yl]pyrazol-4-yl]-N-(isopropoxymethyl)benzamide]
≥ 80%: [1]; [6] | [2]; [7] | [3]; [8] | [4]; [9] | [5]; [10]

COCCN(C(=O)c1cc(-c2cnn(-c3c(OC(F)F)c(C(F)(C(F)(F)F)C(F)(F)F)nn3C)c2)ccc1Cl)C1(C#N)CC1 [Example 7, 2-chloro-N-(1-cyanocyclopropyl)-5-[1-[4-(difluoromethoxy)-2-methyl-5-[1,2,2,2-tetrafluoro-1-(trifluoromethyl)ethyl]pyrazol-3-yl]pyrazol-4-yl]-N-(2-methoxyethyl)benzamide]
≥ 80%: [1]; [6] | [2]; [7] | [3]; [8] | [4]; [9] | [5]; [10]

COC(=O)N(C(=O)c1cc(-c2cnn(-c3c(OC(F)F)c(C(F)(C(F)(F)F)C(F)(F)F)nn3C)c2)ccc1Cl)C1CC1 [Example 23, methyl N-[2-chloro-5-[1-[4-(difluoromethoxy)-2-methyl-5-[1,2,2,2-tetrafluoro-1-(trifluoromethyl)ethyl]pyrazol-3-yl]pyrazol-4-yl]benzoyl]-N-cyclopropyl-carbamate]
≥ 80%: [1] | [2] | [3] | [4] | [5]

CCOC(=O)N(C(=O)c1cc(-c2cnn(-c3c(OC(F)F)c(C(F)(C(F)(F)F)C(F)(F)F)nn3C)c2)ccc1Cl)C1(C#N)CC1 [Example 8, ethyl N-[2-chloro-5-[1-[4-(difluoromethoxy)-2-methyl-5-[1,2,2,2-tetrafluoro-1-(trifluoromethyl)ethyl]pyrazol-3-yl]pyrazol-4-yl]benzoyl]-N-(1-cyanocyclopropyl)carbamate]
≥ 80%: [1] | [2] | [3] | [4] | [5]

CCN(C(=O)c1cc(-c2cnn(-c3c(OC(F)F)c(C(F)(C(F)(F)F)C(F)(F)F)nn3C)c2)ccc1Cl)C1CC1 [Example 26, 2-chloro-N-cyclopropyl-5-[1-[4-(difluoromethoxy)-2-methyl-5-[1,2,2,2-tetrafluoro-1-(trifluoromethyl)ethyl]pyrazol-3-yl]pyrazol-4-yl]-N-ethyl-benzamide]
≥ 80%: [1]; [6] | [2]; [7] | [3]; [8] | [4]; [9] | [5]; [10]

CCOCN(C(=O)c1cc(-c2cnn(-c3c(OC(F)F)c(C(F)(C(F)(F)F)C(F)(F)F)nn3C)c2)ccc1Cl)C1CC1 [Example 27, 2-chloro-N-cyclopropyl-5-[1-[4-(difluoromethoxy)-2-methyl-5-[1,2,2,2-tetrafluoro-1-(trifluoromethyl)ethyl]pyrazol-3-yl]pyrazol-4-yl]-N-(ethoxymethyl)benzamide]
≥ 80%: [1]; [6] | [2]; [7] | [3]; [8] | [4]; [9] | [5]; [10]

CCOCCN(C(=O)c1cc(-c2cnn(-c3c(OC(F)F)c(C(F)(C(F)(F)F)C(F)(F)F)nn3C)c2)ccc1Cl)C1(C#N)CC1 [Example 13, 2-chloro-N-(1-cyanocyclopropyl)-5-[1-[4-(difluoromethoxy)-2-methyl-5-[1,2,2,2-tetrafluoro-1-(trifluoromethyl)ethyl]pyrazol-3-yl]pyrazol-4-yl]-N-(2-ethoxyethyl)benzamide]
≥ 80%: [2]; [7] | [3]; [8] | [4]; [9] | [5]; [10]
